Data from patent US7192746B2, “α-Isomaltosyltransferase, process for producing the same and use thereof” (Kabushiki Kaisha Hayashibara Seibutsu Kagaku Kenkyujo, priority 2000, dated 2007).

Columns and labels:
Format in all cases: biochemical
[1] = system: α-isomaltosyl-transferring enzyme from Arthrobacter globiformis A19; assay: Specificity to transferring acceptor; design: key: −: no saccharide transferred product was formed; ±: a saccharide-transferred product formed in an amount of less than one percent to the total sugars; +: a saccharide-transferred product was formed in an amount of over one percent but below 10% to the total sugars; ++: a saccharide-transferred product was formed in an amount of over 10% to the total sugars; conditions: partially purified enzyme, panose as saccharide donor, 10 units/g substrate, 3.2% (w/v), 30° C., pH 6.0, 24 hours
Protocol: (§1) Saccharides were tested as follows to examine whether they can be used as transferring acceptors for the α-isomaltosyl-transferring enzyme of the present invention. A solution of D-glucose, D-xylose, L-xylose, D-galactose, D-fructose, D-mannose, D-arabinose, D-fucose, L-sorbose, L-rhamnose, methyl-α-glucoside (or methyl-α-glucopyranoside), methyl-β-glucoside (or methyl-β-glucopyranoside), N-acetyl-D-glucosamine, D-ribose, L-ribose, D-psicose, sorbitol, xylitol, mannitol, arabitol, ribitol, erythritol, maltose, maltotriose, maltotetraose, maltopentaose, isomaltose, isomaltotriose, α,α-trehalose, α,β-trehalose, kojibiose, nigerose, cellobiose, gentibiose, isopanose, maltitol, maltotriitol, lactose, sucrose, erlose, isomaltosylglucoside, α-cyclodextrin, β-cyclodextrin, γ-cyclodextrin, or L-ascorbic acid was prepared. To each solution was added panose as a saccharide donor to give an equal concentration, admixed with 10 units/g substrate of a purified specimen of either α-isomaltosyl-transferring enzyme from Bacillus globisporus C9 obtained by the method in Experiment 4, Bacillus globisporus C11 obtained by the method in Experiment 7, Bacillus globisporus N75 obtained by the method in Experiment 11, or Arthrobacter ramosus S1 obtained by the method in Experiment 15, or a partially purified specimen of α-isomaltosyl-transferring enzyme from Arthrobacter globiformis A19 obtained by the method in Experiment 18, followed by adjusting the saccharide concentration to 3.2% (w/v). The mixtures thus obtained were enzymatically reacted at 30° C. and Ph 6.0 for 24 hours. The saccharide composition of the resulting reaction mixtures were analyzed on gas chromatography (abbreviated as “GLC” hereinafter) for monosaccharides and disaccharides as testing saccharides, and on HPLC for tri- or higher-saccharides as testing saccharides to confirm whether these saccharides can be used as transferring acceptors for the above enzymes with an index of the positive or negative formation of a saccharide transferred product. In performing GLC, the following apparatuses and conditions were used: GLC apparatus, “GC-16A” commercialized by Shimadzu Corporation, Tokyo, Japan; column, a stainless-steel column, 3 mm in diameter and 2 m in length, packed with 2% “SILICONE OV-17/[…]”, commercialized by GL Sciences Inc., Tokyo, Japan; carrier gas, nitrogen gas at a flow rate of 40 ml/min under temperature conditions of increasing from 160° C. to 320° C. at an increasing temperature rate of 7.5° C./min; and detection, a hydrogen flame ionization detector. In the case of HPLC analysis, the apparatuses and conditions used were: HPLC apparatus, “CCPD” commercialized by Tosoh Corporation, Tokyo, Japan; column, “ODS-AQ-303” commercialized by YMC Co., Ltd., Tokyo, Japan; eluent, water at a flow rate of 0.5 ml/min; and detection, a differential refractometer.

[2] = system: α-isomaltosyl-transferring enzyme from Bacillus globisporus C11; assay: Specificity to transferring acceptor; design: key: −: no saccharide transferred product was formed; ±: a saccharide-transferred product formed in an amount of less than one percent to the total sugars; +: a saccharide-transferred product was formed in an amount of over one percent but below 10% to the total sugars; ++: a saccharide-transferred product was formed in an amount of over 10% to the total sugars; conditions: panose as saccharide donor, 10 units/g substrate, 3.2% (w/v), 30° C., pH 6.0, 24 hours
Protocol: as §1

[3] = system: α-isomaltosyl-transferring enzyme from Arthrobacter ramosus S1; assay: Specificity to transferring acceptor; design: key: −: no saccharide transferred product was formed; ±: a saccharide-transferred product formed in an amount of less than one percent to the total sugars; +: a saccharide-transferred product was formed in an amount of over one percent but below 10% to the total sugars; ++: a saccharide-transferred product was formed in an amount of over 10% to the total sugars; conditions: panose as saccharide donor, 10 units/g substrate, 3.2% (w/v), 30° C., pH 6.0, 24 hours
Protocol: as §1

[4] = system: α-isomaltosyl-transferring enzyme from Bacillus globisporus N75; assay: Specificity to transferring acceptor; design: key: −: no saccharide transferred product was formed; ±: a saccharide-transferred product formed in an amount of less than one percent to the total sugars; +: a saccharide-transferred product was formed in an amount of over one percent but below 10% to the total sugars; ++: a saccharide-transferred product was formed in an amount of over 10% to the total sugars; conditions: panose as saccharide donor, 10 units/g substrate, 3.2% (w/v), 30° C., pH 6.0, 24 hours
Protocol: as §1

[5] = system: α-isomaltosyl-transferring enzyme from Bacillus globisporus C9; assay: Specificity to transferring acceptor; design: key: −: no saccharide transferred product was formed; ±: a saccharide-transferred product formed in an amount of less than one percent to the total sugars; +: a saccharide-transferred product was formed in an amount of over one percent but below 10% to the total sugars; ++: a saccharide-transferred product was formed in an amount of over 10% to the total sugars; conditions: panose as saccharide donor, 10 units/g substrate, 3.2% (w/v), 30° C., pH 6.0, 24 hours
Protocol: as §1

[6] = system: α-isomaltosyl-transferring enzyme from Arthrobacter globiformis A19; assay: Action on saccharides (substrates, TLC); design: key: −: there was found no substrate change before and after the enzymatic reaction; +: there were found both the reduction of substrate and the formation of cyclotetrasaccharide after the enzymatic reaction; conditions: partially purified enzyme, 2 units/g substrate, 2% (w/v) substrate, 30° C., pH 6.0, 24 hours
Excerpt: (§2) To examine the saccharides in the supernatant, they were separated from the supernatant by silica gel thin-layer chromatography (abbreviated as “TLC” hereinafter) using, as a developer, a mixture solution of n-butanol, pyridine, and water (=6:4:1), and, as a thin-layer plate, “[…] 60”, an aluminum plate (20×20 cm) for TLC commercialized by […]. The coloration of both the separated total sugars by the sulfuric acid-methanol method and the reducing saccharides by the diphenylamine-aniline method detected a non-reducing saccharide at a position with an Rf value of about 0.31, which was positive on the former detection method but negative on the latter detection method.
(§3) It was tested whether saccharides can be used as substrates for the α-isomaltosyl-transferring enzyme. For the purpose, a solution of maltose, maltotriose, maltotetraose, maltopentaose, maltohexaose, maltoheptaose, isomaltose, isomaltotriose, panose, isomaltosylmaltose, isopanose, α,α-trehalose, kojibiose, nigerose, α,β-trehalose, cellobiose, gentibiose, maltitol, maltotriitol, lactose, sucrose, α-cyclodextrin, β-cyclodextrin, γ-cyclodextrin, soluble starch, pullulan, or dextran was prepared. To each of the above solutions was added two units/g substrate of a purified specimen of either α-isomaltosyl-transferring enzyme from Bacillus globisporus C9 obtained by the method in Experiment 4, Bacillus globisporus C11 obtained by the method in Experiment 7, Bacillus globisporus N75 obtained by the method in Experiment 11, or Arthrobacter ramosus S1 obtained by the method in Experiment 15, or a partially purified α-isomaltosyl-transferring enzyme from Arthrobacter globiformis A19 obtained by the method in Experiment 15. The resulting each solution was adjusted to give a substrate concentration of 2% (w/v) and incubated at 30° C. and pH 6.0 for 24 hours. The enzyme solutions before and after the enzymatic reactions were respectively analyzed on TLC as disclosed in Experiment 1 to confirm whether the enzymes acted on these substrates.

[7] = system: α-isomaltosyl-transferring enzyme from Bacillus globisporus C11; assay: Action on saccharides (substrates, TLC); design: key: −: there was found no substrate change before and after the enzymatic reaction; +: there were found both the reduction of substrate and the formation of cyclotetrasaccharide after the enzymatic reaction; conditions: 2 units/g substrate, 2% (w/v) substrate, 30° C., pH 6.0, 24 hours
Excerpt: as §2, §3

[8] = system: α-isomaltosyl-transferring enzyme from Arthrobacter ramosus S1; assay: Action on saccharides (substrates, TLC); design: key: −: there was found no substrate change before and after the enzymatic reaction; +: there were found both the reduction of substrate and the formation of cyclotetrasaccharide after the enzymatic reaction; conditions: 2 units/g substrate, 2% (w/v) substrate, 30° C., pH 6.0, 24 hours
Excerpt: as §2, §3

[9] = system: α-isomaltosyl-transferring enzyme from Bacillus globisporus N75; assay: Action on saccharides (substrates, TLC); design: key: −: there was found no substrate change before and after the enzymatic reaction; +: there were found both the reduction of substrate and the formation of cyclotetrasaccharide after the enzymatic reaction; conditions: 2 units/g substrate, 2% (w/v) substrate, 30° C., pH 6.0, 24 hours
Excerpt: as §2, §3

[10] = system: α-isomaltosyl-transferring enzyme from Bacillus globisporus C9; assay: Action on saccharides (substrates, TLC); design: key: −: there was found no substrate change before and after the enzymatic reaction; +: there were found both the reduction of substrate and the formation of cyclotetrasaccharide after the enzymatic reaction; conditions: 2 units/g substrate, 2% (w/v) substrate, 30° C., pH 6.0, 24 hours
Excerpt: as §2, §3

| Compound | Product of transferring reaction, Enzyme of Stain A19 [1] | Product of transferring reaction, Enzyme of Strain C11 [2] | Product of transferring reaction, Enzyme of Strain S1 [3] | Product of transferring reaction, Enzyme of Strain N75 [4] | Product of transferring reaction, Enzyme of Strain C9 [5] | Enzymatic action for forming cyclotetrasaccharide, Enzyme of Strain A19 [6] | Enzymatic action for forming cyclotetrasaccharide, Enzyme of Strain C11 [7] | Enzymatic action for forming cyclotetrasaccharide, Enzyme of Strain S1 [8] | Enzymatic action for forming cyclotetrasaccharide, Enzyme of Strain N75 [9] | Enzymatic action for forming cyclotetrasaccharide, Enzyme of Strain C9 [10] |
| --- | --- | --- | --- | --- | --- | --- | --- | --- | --- | --- |
| O=C[C@H](O)[C@@H](O)[C@H](O[C@@H]1O[C@H](CO)[C@@H](O)[C@H](O)[C@H]1O)[C@H](O)CO [Cellobiose, cellobiose] | + (a saccharide-transferred product was formed in an amount of over one percent but below 10% to the total sugars) | + (a saccharide-transferred product was formed in an amount of over one percent but below 10% to the total sugars) | + (a saccharide-transferred product was formed in an amount of over one percent but below 10% to the total sugars) | + (a saccharide-transferred product was formed in an amount of over one percent but below 10% to the total sugars) | + (a saccharide-transferred product was formed in an amount of over one percent but below 10% to the total sugars) | − | − | − | − | − |
| OC[C@H]1O[C@H](OC[C@H]2O[C@H](O[C@H]3[C@H](O)[C@@H](O)[C@@H](O[C@H]4[C@H](O)[C@@H](O)C(O)O[C@@H]4CO)O[C@@H]3CO)[C@H](O)[C@@H](O)[C@@H]2O)[C@H](O)[C@@H](O)[C@@H]1O (stereo partly drawn) [Isomaltosylmaltose, isomaltosylmaltose] |  |  |  |  |  | + | + | + | + | + |
| OC[C@H]1O[C@H](OC[C@H]2O[C@H](O[C@H]3[C@H](O)[C@@H](O)C(O)O[C@@H]3CO)[C@H](O)[C@@H](O)[C@@H]2O)[C@H](O)[C@@H](O)[C@@H]1O (stereo partly drawn) [Panose, panose] |  |  |  |  |  | + | + | + | + | + |
| OC[C@@H](O)[C@@H](O)[C@H](O)[C@@H](O)CO [Sorbitol, sorbitol] | ± (a saccharide-transferred product formed in an amount of less than one percent to the total sugars) | − | ± (a saccharide-transferred product formed in an amount of less than one percent to the total sugars) | − | − |  |  |  |  |  |
| OC[C@@H](O)[C@H](O)[C@@H](O)CO [Xylitol, xylitol] | ± (a saccharide-transferred product formed in an amount of less than one percent to the total sugars) | − | ± (a saccharide-transferred product formed in an amount of less than one percent to the total sugars) | − | − |  |  |  |  |  |
| isomaltosylglucoside | ++ (a saccharide-transferred product was formed in an amount of over 10% to the total sugars) | ++ (a saccharide-transferred product was formed in an amount of over 10% to the total sugars) | ++ (a saccharide-transferred product was formed in an amount of over 10% to the total sugars) | ++ (a saccharide-transferred product was formed in an amount of over 10% to the total sugars) | ++ (a saccharide-transferred product was formed in an amount of over 10% to the total sugars) |  |  |  |  |  |
| maltoheptaose |  |  |  |  |  | − | − | − | − | − |
| maltohexaose |  |  |  |  |  | − | − | − | − | − |
